Assay results reported in the supplement of paper PMC11451515.

Legend:
Assay in all cases: AUC of viability dose-response curve (% viability x log10 dose units); higher = less sensitive
Conditions in all cases: 48 h
[1] = test system: NOMO1
Outline: (§1)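 Leukemia cells adapted to each medium were seeded at 500 or 1000 cells/well in 1536-well plates and dosed with library compounds in DMSO at 11 threefold doses from 47 μM to 0.79 nM for 48 h at 37°C. CellTiter-Glo One luminescence was normalised per plate to DMSO and cell-free wells, then fitted with a four-parameter log-logistic model over log10 doses. Area under the curve was taken from this fit by the trapezoidal rule, with curves above full viability scaled and curves failing quality control removed.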

[2] = test system: P12-Ichikawa
Outline: as §1

[3] = test system: SEM cells
Outline: as §1

[4] = RPMI 5 mM glucose + 10% dialyzed FBS

SMILES | AUC of viability dose-response curve ([1]; HPLM + 10% dialyzed FBS) | AUC of viability dose-response curve ([1]; RPMI 5 mM glucose + 10% FBS) | AUC of viability dose-response curve [1, 4] | AUC of viability dose-response curve ([2]; HPLM + 10% dialyzed FBS) | AUC of viability dose-response curve ([2]; RPMI 5 mM glucose + 10% FBS) | AUC of viability dose-response curve [2, 4] | AUC of viability dose-response curve ([3]; HPLM + 10% dialyzed FBS) | AUC of viability dose-response curve ([3]; RPMI 5 mM glucose + 10% FBS) | AUC of viability dose-response curve [3, 4]
COc1cc2nc(N3CCCN(C)CC3)nc(NC3CCN(Cc4ccccc4)CC3)c2cc1OC | 378 | 406 | 384 | 407 | 401 | 385 | 389 | 416 | 419
CC1=C(C=CC=C1)N2\C(=N/C3=C(C(=CC=C3)C)C2=O)C[N]4N=CC5=C4N=CN=C5N | 329 | 307 | 341 | 368 | 366 | 377 | 469 | 470 | 471
CC(C)(C)C(=O)OCOP(=O)(COCCn1cnc2c(N)ncnc21)OCOC(=O)C(C)(C)C | 306 | 259 | 278 | 316 | 287 | 309 | 291 | 238 | 235
[NH2][Pt]([NH2])([Cl])[Cl] | 456 | 421 | 445 | 470 | 449 | 433 | 429 | 419 | 380
O=C1Nc2ccc(Cl)cc2[C@@](C#CC2CC2)(C(F)(F)F)O1 | 381 | 364 | 437 | 430 | 395 | 378 | 413 | 389 | 375
COc1cc(C(C)=O)ccc1OCCCN1CCC(c2noc3cc(F)ccc23)CC1 | 468 | 468 | 464 | 470 | 472 | 471 | 468 | 446 | 455
CC(C)C[C@H](NC(=O)[C@@H](NC(=O)c1cccc(-c2ccccc2)n1)[C@@H](C)O)B(O)O | 212 | 218 | 230 | 197 | 184 | 201 | 155 | 149 | 149
CC(=O)N1CCN(c2ccc(OC[C@H]3CO[C@](Cn4ccnc4)(c4ccc(Cl)cc4Cl)O3)cc2)CC1 | 437 | 456 | 470 | 449 | 456 | 452 | 391 | 340 | 336
NC1=NC=C(C=C1)C2=CC=C3N=CC\4=C(N(C(=O)\C=C4)C5=CC(=CC=C5)C(F)(F)F)C3=C2 | 191 | 214 | 194 | – | – | – | – | – | –
C[C@@H](O)[C@@H]1[C@H]2[C@@H](C)\C(=C(/N2C1=O)C(=O)OCOC(=O)C(C)(C)C)SC3CN(C3)/C4=N/CCS4 | 421 | 465 | 454 | 471 | 469 | 464 | 467 | 467 | 467
O=C(O)c1ccc(-n2nc(-c3ccccc3O)nc2-c2ccccc2O)cc1 | 441 | 442 | 408 | 433 | 422 | 422 | 427 | 408 | 415
c1cc(CN2CCCNCCNCCCNCC2)ccc1CN1CCCNCCNCCCNCC1 | – | – | – | – | – | – | 390 | 387 | 416
COc1cc(Nc2ncc(F)c(Nc3ccc4c(n3)NC(=O)C(C)(C)O4)n2)cc(OC)c1OC | 379 | 392 | 404 | 373 | 386 | 384 | – | – | –
CN1CCC(CC1)COC2=CN=C(N=C2)C3=CC(=CC=C3)CN4/N=C(\C=C/C4=O)C5=CC(=CC=C5)C#N | 468 | 464 | 471 | 472 | 465 | 464 | – | – | –
CO[C@H]1C[C@@H]2CC[C@@H](C)[C@@](O)(O2)C(=O)C(=O)N2CCCC[C@H]2C(=O)O[C@H]([C@H](C)C[C@@H]2CC[C@@H](OC(=O)C(C)(CO)CO)[C@H](OC)C2)CC(=O)[C@H](C)/C=C(\C)[C@@H](O)[C@@H](OC)C(=O)[C@H](C)C[C@H](C)/C=C/C=C/C=C/1C | 453 | 435 | 447 | 427 | 409 | 418 | – | – | –
C=CC1=C(C(=O)O)N2C(=O)[C@@H](NC(=O)/C(=N\O)c3csc(N)n3)[C@H]2SC1 | 467 | 438 | 462 | – | – | – | 397 | 435 | 433
O=C(NC[C@H](O)CN1CCc2ccccc2C1)c1cc(NC2COC2)ncn1 | – | – | – | 397 | 372 | 388 | – | – | –
CCN(CC)CCCCNc1nc2cc(Cl)c(Cl)cc2nc1-c1ccc(-c2cccs2)s1 | 444 | 454 | 453 | – | – | – | – | – | –
CCN(CC)C(=S)SSC(=S)N(CC)CC | 375 | 365 | 361 | 366 | 363 | 362 | – | – | –
CC(C)(C)c1cc(C=C(C#N)C#N)cc(Br)c1O | 473 | 471 | 456 | 453 | 452 | 452 | – | – | –
